Eleven compounds from ChEMBL document CHEMBL1136137, “Ring substituted analogues of 5-aminomethyl-10,11-dihydro-dibenzo[a,d]cycloheptene (AMDH): potential modes of binding to the 5-HT(2A) receptor” (Bioorg Med Chem Lett, 2003) can be followed below.

Usually Ki stands for a dissociation constant, usually derived from enzyme kinetics or from competition with a known ligand.

The target of this experiment is 5-hydroxytryptamine receptor 2A (Rattus norvegicus, UniProt P14842). The experiment can be described thus: Binding affinity towards 5-hydroxytryptamine 2A receptor sites by using [3H]ketanserin as radioligand.
5-hydroxytryptamine receptor 2A, sequence (P14842 whole entry): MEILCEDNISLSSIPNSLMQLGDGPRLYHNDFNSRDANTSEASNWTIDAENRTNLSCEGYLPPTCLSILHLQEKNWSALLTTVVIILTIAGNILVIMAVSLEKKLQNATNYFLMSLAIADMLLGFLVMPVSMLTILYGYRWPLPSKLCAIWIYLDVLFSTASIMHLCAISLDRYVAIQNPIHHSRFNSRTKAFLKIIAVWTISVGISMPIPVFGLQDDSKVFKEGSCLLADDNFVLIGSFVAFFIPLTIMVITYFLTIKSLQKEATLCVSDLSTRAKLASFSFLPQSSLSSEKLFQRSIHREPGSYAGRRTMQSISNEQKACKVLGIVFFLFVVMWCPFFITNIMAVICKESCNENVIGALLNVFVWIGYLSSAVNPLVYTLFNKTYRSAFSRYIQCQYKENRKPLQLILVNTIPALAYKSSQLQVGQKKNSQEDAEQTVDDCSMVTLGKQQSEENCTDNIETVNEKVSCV

`NCC1c2ccccc2CCc2cc(Br)ccc21` (stereo unspecified): the Ki turned out to be 37 nM.

Compound `COc1cc(CC(C)N)c(OC)cc1CCCc1ccccc1` (stereo unspecified) showed a Ki of 10 nM. This Ki is about 3.7-fold lower than that of the compound before.

Consider `NCC1c2ccccc2CCc2cc(CCCc3ccccc3)ccc21` (stereo unspecified), for which the affinity, expressed as Ki, was 81 nM.

`CCCCCCc1ccc2c(c1)Cc1ccccc1C2CN` (stereo unspecified) registered a Ki of 7 nM. This Ki lies about 12-fold lower than the previous one.

Compound `COc1cc(OC)c(OC)cc1CC(C)N` (stereo unspecified) displayed a Ki of 1200 nM.

Compound `COc1ccc2c(c1)CCc1ccccc1C2CN` (stereo unspecified) came in with a Ki of 800 nM. Against the preceding compound, the Ki is about 1.5-fold lower.

Compound `COc1ccc2c(c1)Cc1ccccc1C2CN` (stereo unspecified) returned a Ki of 7.5 nM.

The compound `CCCCCCc1ccc2c(c1)CCc1ccccc1C2CN` (stereo unspecified) displayed a Ki of 630 nM.

In turn, `NCC1c2ccccc2Cc2cc(Br)ccc21` (stereo unspecified) displayed a Ki of 1.3 nM.

`NCC1c2ccccc2Cc2cc(CCCc3ccccc3)ccc21` (stereo unspecified) registered a Ki of 3.2 nM.

In turn, `CCCCCCc1cc(OC)c(CC(C)N)cc1OC` (stereo unspecified) had a Ki of 2.5 nM.
